Measurements: US20170035049A1, “BIOCIDAL PRODUCTS” (SALVECO, priority 2014, published 2017)

Test: Ultimate aerobic biodegradability in aqueous medium (OECD 301 A)
Details: on the fourteenth day
Protocol: This test is an evaluation in an aqueous medium of the ultimate aerobic biodegradability of a sample of the concentrated formulation according to the invention. This test is performed according to the provisions of the OECD 301 A method using a sample containing a dissolved organic carbon content of 10 mg/l (DOC for dissolved organic carbon). The evolution of the disappearance of dissolved organic carbon is followed during a period of 28 days in the “Concentrated disinfection” test at 10 mg/l of DOC. The physical-chemical analysis is performed according to the ASTM […] standard. The attached FIG. 1 represents the resulting curves of degradation of the organic carbon dissolved after 28 days. The reference substance corresponds to sodium acetate.

CC(=O)[O-].[Na+] [sodium acetate]
percentage of degradation of the reference substance: 99%
